Reference: patent publication US4983328A, “N-(4-(3-aminopropyl)aminobutyl)-2-(ω-gua nidino-fatty-acid-amido(-2-substituted-ethanamide, salt thereof, and process for preparation thereof” (Bristol-Myers Company, priority 1981, dated 1991)
Converted amounts (≈) assume the structure as drawn.

Experiments:
[1] = chemical stability: retention (%) after heating at 60° C. for 4 hours, by HPLC; format: physicochemical
Experimental: The chemical stability of the present compound was evaluated by determining the retention (%) after heating at 60° C. for 4 hours. In Table 5 are shown the test results together with those for spergualin as reference. The retention was determined by means of high performance liquid chromatography (HPLC). The column was packed with Nucleosil® 5C18. The solvent used for spergualin was a mixture (6:94) of acetonitrile -0.01M sodium pentanesulfonate +0.01M Na2 HPO4 (pH 3), while that for the compounds of this invention was a mixture of acetonitrile -0.005M sodium pentanesulfonate ±0.01M Na2 HPO4 (pH 3). The mixture ratio in the latter case was varied for each particular compound. For instance, a mixing ratio of 10:90 was used for Compound No. 9, while that of 7:93 for Compound No. 22.

[2] = system: mouse leukemia L-1210 cells; experiment: growth inhibitory activity to cancer cells in vitro (L-1210, 48 hours); format: cell-based; settings: for inhibition at 1.25 µg/mL: L1210, 1.25 mcg/ml; for inhibition at 2.5 µg/mL: L1210, 2.5 mcg/ml; for inhibition at 5 µg/mL: L1210, 5 mcg/ml; for inhibition at 10 µg/mL: L1210, 10 mcg/ml; for inhibition at 20 µg/mL: L1210, 20 mcg/ml; for inhibition at 40 µg/mL: L1210, 40 mcg/ml; for IC50: L1210, L-1210 cells, read-out: 50% inhibitory concentration; for inhibition at 80 µg/mL: L1210, 80 mcg/ml
Experimental: DBA/2 mice were implanted with 10^5 mouse leukemia L-1210 cells. The ascites collected asceptically from the mice after 4 days of feeding was washed three times with physiological saline to obtain L-1210 cells, which was then suspended in RPMI 1640 culture medium [G. E. Moore, Journal of the American Medical Association, Vol. 199, 519 (1967); H. J. Morton, In Vitro, Vol. 6, 89 (1970)] to which 10% fetal calf serum and 5 μM 2-mercaptoethanol had been added, and the resulting suspension was diluted to 5×10^4 L-1210 cells per 0.9 ml. A microplate carrying 0.9 ml of the cell suspension and 0.1 ml of the culture medium containing the sample being tested was kept in a carbon dioxide incubator at 37° C. After 48 hours of cultivation, the number of cells was measured by means of a Coulter Counter (Coulter Electronics, Inc., U.S.A.) to obtain the growth inhibition (%)=(1--T/C )×100=[1-(number of grown cells in medium containing sample/(number of grown cells in control medium)]×100. The 50% growth inhibitory concentration was calculated from the values of growth inhibition at varied sample concentrations. The results of tests on typical compounds of this invention for the growth inhibition of L-1210 cells were as shown in Table 6.

[3] = acute toxicity in mice (single intraperitoneal administration); settings: mouse, in vivo, ip; mice, single i.p.; read-out: LD50 (median lethal dose on single administration)
Experimental: (§1) In Table 8 median lethal doses (LD50) of typical compounds of this invention are shown, measured in mice upon single intraperitoneal administration, as well as maximum tolerated doses in terms of total dose when a fixed amount per unit body weight was administered intraperitoneally to mice once a day for 6 consecutive days.
*Median lethal dose on single administration.

[4] = cumulative toxicity in mice (maximum tolerated dose, once a day for 6 consecutive days); settings: mouse, in vivo, ip, i.p. once a day for 6 consecutive days, total dose, read-out: Maximum Tolerated Dose (total dose not causing death)
Experimental: as §1
**Maximum value of the total dose not causing death when a fixed amount
per unit body weight is administered to mice once a day for 6 consecutive

[5] = system: mouse leukemia L-1210; experiment: therapeutic effect on implanted cancer in mice (L-1210, survival over 30 days); format: in vivo, mouse (BDF1); settings: L1210, ip, 720 h, 6 days; for responders at 1.56 mg/kg / response vs control in vivo at 1.56 mg/kg: 1.56 mg/kg/day i.p.; for responders at 3.13 mg/kg / response vs control in vivo at 3.13 mg/kg: 3.13 mg/kg/day i.p.; for responders at 6.25 mg/kg / response vs control in vivo at 6.25 mg/kg: 6.25 mg/kg/day i.p.; for responders at 12.5 mg/kg / response vs control in vivo at 12.5 mg/kg: 12.5 mg/kg/day i.p.; for responders at 25 mg/kg / response vs control in vivo at 25 mg/kg: 25 mg/kg/day i.p.
Description: BDF1 strain male mice (5 weeks old) were each inoculated intraperitoneally with 10^5 mouse leukemia L-1210 cells and treated once a day by intraperitoneal injection with a test compound dissolved in physiological saline for 6 consecutive days beginning from the day of inoculation. The mice were then observed for 30 days to determine the rate of prolongation of survival period=100×T/C=100×(average survival days of treated group)/(average survival days of control group).

[6] = read-out: Growth inhibition (%), (1-T/C) × 100
[7] = read-out: Number of mice survived for 30 days (converted)
[8] = read-out: Prolongation of survival period (%), T/C × 100

SMILES | remaining at 4 h ([1]; pH 2, pH 2) [%] | remaining at 4 h ([1]; pH 4, pH 4) [%] | remaining at 4 h ([1]; pH 6, pH 6) [%] | remaining at 4 h ([1]; pH 8, pH 8) [%] | remaining at 4 h ([1]; pH 9, pH 9) [%] | inhibition at 1.25 µg/mL [2, 6] [%] | inhibition at 2.5 µg/mL [2, 6] [%] | inhibition at 5 µg/mL [2, 6] [%] | inhibition at 10 µg/mL [2, 6] [%] | inhibition at 20 µg/mL [2, 6] [%] | inhibition at 40 µg/mL [2, 6] [%] | IC50 [2] [µg/mL] | LD50 [3] [mg/kg] | MTD [4] [mg/kg] | further results
N=C(N)NCCCC[C@H](O)CC(=O)NC(O)C(=O)NCCCCNCCCN (single isomer, unassigned; (-)) [(-)-spergualin, reference compound] | 88.1 | 87.8 | 46.5 | 6.1 | 0 | – | – | – | – | – | – | – | – | – | remaining at 4 h ([1]; pH 3, pH 3): 88%; remaining at 4 h ([1]; pH 5, pH 5): 82.5%; remaining at 4 h ([1]; pH 7, pH 7): 12.6%
COC(NC(=O)CCCNC(=N)N)C(=O)NCCCCNCCCN (stereo not drawn) [Compound 7, N-[4-(3-aminopropyl)aminobutyl]-2-(4-guanidinobutanamido)-2-methoxyethanamide] | – | – | – | – | – | 38.7 | 80.7 | 98.5 | 99.8 | 99.9 | 99.3 | 1.5 (≈ 4.17 µM) | – | – | –
COC(NC(=O)C[C@@H](O)CCCCNC(=N)N)C(=O)NCCCCNCCCN (single isomer, unassigned; (+)) [Compound 22 (+), (+)-11-O-methylspergualin] | – | – | – | – | – | – | – | – | – | – | – | – | – | – | Stability [Retention (%)] ([1]; pH 2): 79.7%; Stability [Retention (%)] ([1]; pH 4): 100%; Stability [Retention (%)] ([1]; pH 5): 100%; Stability [Retention (%)] ([1]; pH 6): 100%; Stability [Retention (%)] ([1]; pH 7): 100%; Stability [Retention (%)] ([1]; pH 8): 100%; Stability [Retention (%)] ([1]; pH 9, 240 min): 100%; Stability [Retention (%)] ([1]; pH 10, 240 min): 95.6%
COC(NC(=O)CCCCCNC(=N)N)C(=O)NCCCCNCCCN (stereo not drawn) [Compound 8, N-[4-(3-aminopropyl)aminobutyl]-2-(6-guanidinohexanamido)-2-methoxyethanamide] | – | – | – | – | – | – | – | 33.2 | 38.1 | 46.8 | 53.5 | 28 (≈ 72.3 µM) | 25 to 50 | > 150 | inhibition at 80 µg/mL [2, 6]: 66.3%; inhibition at 160 µg/mL ([2]; L1210, 160 mcg/ml, read-out: Growth inhibition (%), (1-T/C) × 100): 88.2%
N=C(N)NCCCCCC(O)CC(=O)NC(O)C(=O)NCCCCNCCCN (stereo not drawn) [Compound 20, N-[4-(3-aminopropyl)aminobutyl]-2-(8-guanidino-3-hydroxyoctanamido)-2-hydroxyethanamide] | – | – | – | – | – | 17.2 | 20.1 | 28.9 | 30.7 | 45.7 | – | 27 (≈ 64.7 µM) | > 50 | > 300 | –
COC(NC(=O)CCCCCCNC(=N)N)C(=O)NCCCCNCCCN (single isomer, unassigned; (-)) [Compound 9 (-), (-)-N-[4-(3-aminopropyl)aminobutyl]-2-(7-guanidinoheptanamido)-2-methoxyethanamide] | – | – | – | – | – | – | – | – | – | – | – | – | – | – | responders at 0.1 mg/kg ([5]; 0.10 mg/kg/day i.p., read-out: Number of mice survived for 30 days): 0%; response vs control in vivo at 0.1 mg/kg ([5]; 0.10 mg/kg/day i.p., read-out: Prolongation of survival period (%), T/C × 100): 110%; responders at 0.2 mg/kg ([5]; 0.20 mg/kg/day i.p., read-out: Number of mice survived for 30 days (converted)): 0%; response vs control in vivo at 0.2 mg/kg ([5]; 0.20 mg/kg/day i.p., read-out: Prolongation of survival period (%), T/C × 100): 127%; responders at 0.39 mg/kg ([5]; 0.39 mg/kg/day i.p., read-out: Number of mice survived for 30 days (converted)): 50%; response vs control in vivo at 0.39 mg/kg ([5]; 0.39 mg/kg/day i.p., read-out: Prolongation of survival period (%), T/C × 100): > 342%; responders at 0.78 mg/kg ([5]; 0.78 mg/kg/day i.p., read-out: Number of mice survived for 30 days (converted)): 50%; response vs control in vivo at 0.78 mg/kg ([5]; 0.78 mg/kg/day i.p., read-out: Prolongation of survival period (%), T/C × 100): > 370%; responders at 1.56 mg/kg [5, 7]: 50%; response vs control in vivo at 1.56 mg/kg [5, 8]: > 356%; responders at 3.13 mg/kg [5, 7]: 75%; response vs control in vivo at 3.13 mg/kg [5, 8]: > 411%; responders at 6.25 mg/kg [5, 7]: 25%; response vs control in vivo at 6.25 mg/kg [5, 8]: > 336%; responders at 12.5 mg/kg [5, 7]: 50%; response vs control in vivo at 12.5 mg/kg [5, 8]: > 390%; responders at 25 mg/kg [5, 7]: 0%; response vs control in vivo at 25 mg/kg [5, 8]: 0%
N=C(N)NCCCCCC(=O)NC(O)C(=O)NCCCCNCCCN (stereo not drawn) [Compound 3, N-[4-(3-aminopropyl)aminobutyl]-2-(6-guanidinohexanamido)-2-hydroxyethanamide] | – | – | – | – | – | 20.6 | 36.7 | 64.2 | 81.6 | 86.7 | – | 3.7 (≈ 9.91 µM) | > 50 | > 300 | –
N=C(N)NCCCCC(=O)NC(O)C(=O)NCCCCNCCCN (stereo not drawn) [Compound 2, N-[4-(3-aminopropyl)aminobutyl]-2-(5-guanidinopentanamido)-2-hydroxyethanamide] | – | – | – | – | – | 9.6 | 30.5 | 46.9 | 69.5 | 77.6 | 79.6 | 5 (≈ 13.9 µM) | > 50 | > 300 | inhibition at 80 µg/mL [2, 6]: 79.6%
CCCCOC(NC(=O)CCCCCCNC(=N)N)C(=O)NCCCCNCCCN (stereo not drawn) [Compound 13, N-[4-(3-aminopropyl)aminobutyl]-2-(7-guanidinoheptanamido)-2-butoxyethanamide] | 72.4 | 100 | 100 | 100 | 98 | 17 | 21.3 | 24 | 33.2 | 65.7 | 72.5 | 14 (≈ 31.6 µM) | – | – | remaining at 4 h ([1]; pH 3, pH 3): 90.1%; remaining at 4 h ([1]; pH 10, pH 10): 96%
COC(NC(=O)C[C@@H](O)CCCCNC(=N)N)C(=O)NCCCCNCCCN (single isomer, unassigned; (-)) [22 (-), (-)-11-O-methylspergualin] | 79.7 | 100 | 100 | 100 | 97.6 | – | – | – | – | – | – | – | – | – | responders at 1.56 mg/kg [5, 7]: 0%; response vs control in vivo at 1.56 mg/kg [5, 8]: 177%; responders at 3.13 mg/kg [5, 7]: 20%; response vs control in vivo at 3.13 mg/kg [5, 8]: > 290%; responders at 6.25 mg/kg [5, 7]: 80%; response vs control in vivo at 6.25 mg/kg [5, 8]: > 400%; responders at 12.5 mg/kg [5, 7]: 80%; response vs control in vivo at 12.5 mg/kg [5, 8]: > 408%; responders at 25 mg/kg [5, 7]: 100%; response vs control in vivo at 25 mg/kg [5, 8]: > 423%; remaining at 4 h ([1]; pH 5, pH 5): 100%; remaining at 4 h ([1]; pH 7, pH 7): 100%; remaining at 4 h ([1]; pH 10, pH 10): 95.7%
